The source of these data is PubChem BioAssay (NCI).

Some test systems named below: CCRF-CEM leukemia; SNB-75 CNS; SR leukemia; SK-MEL-28 melanoma; SW-620 colon; OVCAR-4 ovarian; HL-60(TB) leukemia; DLD-1 colon; HCT-116 colon; NCI/ADR-RES ovarian.
Common to all, as to assay: NCI anticancer screen, dose series, 48 h

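Briefly, cells in 96-well plates were exposed to five compound concentrations for 48 h, and endpoints were estimated by linear interpolation. Here, GI50 denotes the concentration required for 50% inhibition of growth. At the TGI there is no net growth.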

Regarding `Cc1cc2c(C(C)C)c(O)c(O)c(C=Nc3ccccc3)c2c(O)c1-c1c(C)cc2c(C(C)C)c(O)c(O)c(C=Nc3ccccc3)c2c1O`, the TGI in the test on CCRF-CEM leukemia, with SNB-75 CNS, in the test on SR leukemia, in the test on SK-MEL-28 melanoma, with SW-620 colon and in the test on OVCAR-4 ovarian was > 100 µM throughout. Also, the TGI in the test with HL-60(TB) leukemia, in the test on DLD-1 colon and in the test on HCT-116 colon was > 100 µM throughout.

Consider `CC1=C/C(=C2/N=C(N(C)C)SS2)C(C)=N1`, for which the TGI in the test with SNB-75 CNS, in the test on SR leukemia, in the test with SK-MEL-28 melanoma, in the test on SW-620 colon, in the test with OVCAR-4 ovarian and in the test on HL-60(TB) leukemia was > 100 µM each time. Moreover, the TGI in the test on DLD-1 colon and in the test with HCT-116 colon was > 100 µM each time.

For the compound `CCCCS(=O)CC(CO)NC(=O)/C=C/c1c(C)[nH]c(=O)[nH]c1=O` (stereo not given), the TGI was determined as 51 µM in the test on CCRF-CEM leukemia; 93.2 µM with NCI/ADR-RES ovarian; 30 µM in the test on SNB-75 CNS; 44.5 µM with SK-MEL-28 melanoma; 152 µM in the test with SW-620 colon; 26.4 µM in the test on OVCAR-4 ovarian. Besides, the TGI was found to be 21.5 µM in the test with HL-60(TB) leukemia, 72.1 µM in the test with DLD-1 colon and 88.2 µM in the test on HCT-116 colon.

In the case of `C[C@]12CCc3sc(-c4cccc(F)c4)nc3C1=CC[C@@H]1[C@@H]2CC[C@]2(C)C(=O)CC[C@@H]12`, the GI50 was 2.45 µM in the test on CCRF-CEM leukemia; 3.41 µM with NCI/ADR-RES ovarian; 3.43 µM with SNB-75 CNS; 2.62 µM with SR leukemia; 1.53 µM in the test with SK-MEL-28 melanoma; 5.51 µM in the test on OVCAR-4 ovarian. Further, the GI50 in the test on HL-60(TB) leukemia was 2 µM; with HCT-116 colon, 1.73 µM. Besides, the TGI was 9.58 µM in the test with CCRF-CEM leukemia; 57.5 µM in the test with NCI/ADR-RES ovarian; > 100 µM in the test on SNB-75 CNS; 10.5 µM in the test with SR leukemia; 4.07 µM in the test on SK-MEL-28 melanoma; > 100 µM in the test on OVCAR-4 ovarian. In addition, the TGI in the test on HL-60(TB) leukemia turned out to be 5.35 µM; with HCT-116 colon, 3.56 µM.

Take `O=C1CCCN1CCCN=c1cc2n(-c3ccc(Cl)cc3)c3ccccc3nc-2cc1Nc1ccc(Cl)cc1`: the TGI in the test on CCRF-CEM leukemia is 50.3 µM; with NCI/ADR-RES ovarian, 42.1 µM; in the test with SNB-75 CNS, 97.5 µM; with SK-MEL-28 melanoma, 47.5 µM; with SW-620 colon, 68.5 µM; in the test with OVCAR-4 ovarian, 21.8 µM. For the same compound, the figures for the TGI in the test with HL-60(TB) leukemia, in the test with DLD-1 colon and in the test on HCT-116 colon were 15.8 µM, 28.3 µM and 25.3 µM, respectively.

With `O=c1c2c3c(sc2nc2n1N=C(c1ccc([N+](=O)[O-])cc1)CS2)CCCC3`, the TGI in the test on CCRF-CEM leukemia, in the test with NCI/ADR-RES ovarian, in the test with SNB-75 CNS, in the test on SR leukemia, in the test on SK-MEL-28 melanoma and in the test with SW-620 colon was > 100 µM in each case. The TGI in the test with OVCAR-4 ovarian, in the test with HL-60(TB) leukemia and with HCT-116 colon was > 100 µM in each case.

As to `Cn1c(=O)c2nc(NCCO)cnc2n(C)c1=O`, the TGI with CCRF-CEM leukemia was > 100 µM; in the test with SNB-75 CNS, 42.4 µM; in the test on SR leukemia, > 100 µM; with SK-MEL-28 melanoma, > 100 µM; in the test on SW-620 colon it was > 100 µM; with OVCAR-4 ovarian it was > 100 µM. Also, the TGI in the test with HL-60(TB) leukemia is 76.9 µM; in the test on DLD-1 colon, > 100 µM; in the test on HCT-116 colon, > 100 µM.

Consider `O=C(c1ccccc1)c1nn(-c2ccccc2)c2nc3nc(-c4ccccc4)cc(=O)n3nc12`, for which the GI50 was 26.2 µM in the test on NCI/ADR-RES ovarian; 36.1 µM in the test on SNB-75 CNS; 17.6 µM with SR leukemia; 37.8 µM with SK-MEL-28 melanoma; 33.1 µM in the test with SW-620 colon; 22.9 µM in the test with OVCAR-4 ovarian. Also, the results for the GI50 with HL-60(TB) leukemia and with HCT-116 colon were 15.2 µM and 14.6 µM, respectively. Also, the TGI is 74.5 µM with NCI/ADR-RES ovarian; > 100 µM with SNB-75 CNS; 40.4 µM with SR leukemia; > 100 µM with SK-MEL-28 melanoma; > 100 µM in the test on SW-620 colon; 68.4 µM with OVCAR-4 ovarian. For the same compound, the TGI in the test with HL-60(TB) leukemia worked out at 42.4 µM; in the test on HCT-116 colon, 28 µM.

For `CCc1c(C)c2ccc(OCC(=O)N=Nc3c(O)[nH]c4ccccc34)c(C)c2oc1=O`, the GI50 is 1.34 µM in the test on CCRF-CEM leukemia, > 33.3 µM in the test on NCI/ADR-RES ovarian, 1.2 µM in the test on SR leukemia and 0.788 µM with OVCAR-4 ovarian. In addition, the TGI was > 33.3 µM in the test with CCRF-CEM leukemia, > 33.3 µM in the test on NCI/ADR-RES ovarian, > 33.3 µM in the test with SR leukemia and 1.86 µM with OVCAR-4 ovarian.

As to `O=C1CSC(C(N=Nc2ccc(Cl)cc2)c2nc3ccccc3[nH]2)=N1` (stereo not given), the TGI in the test with CCRF-CEM leukemia is > 100 µM; in the test on SNB-75 CNS, 90.2 µM; in the test with SR leukemia it was > 100 µM; with SK-MEL-28 melanoma, 92.2 µM; in the test on SW-620 colon, > 100 µM; in the test with OVCAR-4 ovarian it was > 100 µM. The TGI in the test with HL-60(TB) leukemia, in the test with DLD-1 colon and in the test on HCT-116 colon was > 100 µM in each case.

Regarding `NC(=O)SCC(=O)Nc1ccc2ncccc2c1`, the TGI in the test with CCRF-CEM leukemia, in the test on NCI/ADR-RES ovarian, in the test with SR leukemia, in the test on SK-MEL-28 melanoma, with SW-620 colon and with OVCAR-4 ovarian was > 100 µM throughout. The TGI in the test on HL-60(TB) leukemia and in the test on HCT-116 colon was > 100 µM throughout.
